Measurements as given in ChEMBL document CHEMBL4219094, “Synthesis and evaluation of substituted 4-arylimino-3-hydroxybutanoic acids as potential HIV-1 integrase inhibitors” (Bioorg Med Chem Lett, 2018).

Tests used:
[1] = Cytotoxicity against HEK293 cells after 48 hrs by resazurin dye-based fluorescence assay; type: cell-based; conditions: human
[2] = biological target: Human immunodeficiency virus type 1 integrase (Human immunodeficiency virus 1, UniProt Q7ZJM1); experiment: Inhibition of HIV-1 subtype C integrase in presence of biotinylated DNA by colorimetric analysis
Chain of Human immunodeficiency virus type 1 integrase (Q7ZJM1 whole entry): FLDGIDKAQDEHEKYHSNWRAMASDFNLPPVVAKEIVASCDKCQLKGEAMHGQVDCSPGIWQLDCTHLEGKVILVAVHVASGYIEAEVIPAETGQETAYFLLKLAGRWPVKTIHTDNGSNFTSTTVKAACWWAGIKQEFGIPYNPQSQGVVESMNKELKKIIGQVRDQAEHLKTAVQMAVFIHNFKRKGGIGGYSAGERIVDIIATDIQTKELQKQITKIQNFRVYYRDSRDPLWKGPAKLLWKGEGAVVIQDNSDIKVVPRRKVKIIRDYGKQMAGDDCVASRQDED

HEK293 = experiment: Cytotoxicity against HEK293 cells at 100 uM after 48 hrs by resorufin dye-based fluorescence assay relative to control; type: cell-based; conditions: human, hek293, 48 h

| Compound | IC50 [2] [µM] | CC50 at 48 h [1] [µM] | Activity (HEK293) |
| --- | --- | --- | --- |
| O=C(O)CC(O)/C=N/c1ccc(O)c(O)c1 (configuration not stated) | 38.7 |  | Non-Toxic |
| O=C(O)CC(O)/C=N/c1cc(Cl)cc(Br)c1O (configuration not stated) | > 100 | 109 |  |
| O=C(O)CC(O)/C=N/c1ccc(O)c(O)c1O (configuration not stated) | 3.52 |  | Non-Toxic |
| O=C(O)CC(O)/C=N/c1cc([N+](=O)[O-])ccc1O (configuration not stated) | 65.1 |  | Non-Toxic |
| O=C(O)CC(O)/C=N/c1cc(Br)cc(Br)c1O (configuration not stated) | 26.4 | 104 |  |
| CC[C@H]1CN2CCc3cc(OC)c(OC)cc3[C@@H]2C[C@@H]1C[C@H]1NCCc2cc(OC)c(OC)cc21 [EMETINE] |  | 0.071 |  |

More lines, main results first:

| IC50 [2] [µM] | Compound | CC50 at 48 h [1] [µM] | Activity (HEK293) |
| --- | --- | --- | --- |
| > 100 | O=C(O)CC(O)/C=N/c1cc(Cl)cc(Cl)c1O (configuration not stated) | 101 |  |
| > 100 | O=C(O)CC(O)/C=N/c1ccccc1O (configuration not stated) |  | Non-Toxic |
| 53.2 | O=C(O)CC(O)/C=N/c1cccc(O)c1O (configuration not stated) |  | Non-Toxic |
